US20100152235A1, “OXADIAZOLE DERIVATIVES ACTIVE ON SPHINGOSINE-1-PHOSPHATE (S1P)” (priority 2007, published 2010)
pEC50: −log10 of the molar value. Counter-ions that a name gives are not always drawn.

Experiments:
[1] = tested on: circulating lymphocytes; conditions: animals and man, literature; cited from earlier work
[2] = clinical studies, first 24 hours of treatment, literature; cited from earlier work
[3] = biological target: T1, human S1P1 receptor (Homo sapiens, UniProt P21453); assay: S1P1 GTPγS assay; type: biochemical; conditions: [35S]-GTPγS SPA, membranes of rat hepatoma cells expressing human S1P1, agonist
T1 construct: expressed in transfected cells; membranes
T1 sequence (P21453 whole entry): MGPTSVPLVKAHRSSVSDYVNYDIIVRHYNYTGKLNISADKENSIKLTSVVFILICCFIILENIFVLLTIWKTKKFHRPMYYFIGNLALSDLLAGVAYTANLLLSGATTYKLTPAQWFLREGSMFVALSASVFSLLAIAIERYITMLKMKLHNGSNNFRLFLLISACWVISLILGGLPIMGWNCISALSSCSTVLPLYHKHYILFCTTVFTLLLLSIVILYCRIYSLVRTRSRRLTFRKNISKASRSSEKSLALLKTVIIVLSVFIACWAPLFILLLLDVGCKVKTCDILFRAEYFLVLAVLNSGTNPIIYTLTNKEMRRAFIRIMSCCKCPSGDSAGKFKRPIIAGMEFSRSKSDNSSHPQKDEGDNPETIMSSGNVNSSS
Procedure: (§1) For membrane preparations all steps were performed at 4° C. Rat hepatoma cells stably expressing the human S1P1 receptor or Rat Basophilic Leukaemia cells (RBL) stably expressing human S1P3 receptor were grown to 80% confluency before being harvested into 10 ml Phospho-Buffered Saline (PBS) and centrifuged at 1200 rpm for 5 minutes. After removal of the supernatant, the pellet was re-suspended and cells were homogenised within a glass Waring blender for 2 bursts of 15 secs in 200 mls of buffer (50 mM HEPES, 1 mM leupeptin, 25 μg/ml bacitracin, 1 mM EDTA, 1 mM PMSF, 2 μM pepstatin A). The blender was plunged into ice for 5 mins after the first burst and 10-40 mins after the final burst to allow foam to dissipate. The material was then spun at 500 g for 20 mins and the supernatant spun for 36 mins at 48,000 g. The pellet was resuspended in the same buffer as above but without PMSF and pepstatin A. The material was then forced through a 0.6 mm needle, made up to the required volume, (usually ×4 the volume of the original cell pellet), aliquoted and stored frozen at −80° C.
as §1, with “All” for “For membrane preparations all”, “Cells” for “Rat hepatoma cells stably expressing the human S1P1 receptor or Rat Basophilic Leukaemia cells (RBL) stably expressing human S1P3 receptor were grown to 80% confluency before being harvested into 10 ml Phospho-Buffered Saline (PBS) and centrifuged at 1200 rpm for 5 minutes. After removal of the supernatant, the pellet was re-suspended and cells”
Human S1P1 rat hepatoma membranes (1.5 μg/well) were adhered to a wheatgerm agglutinin (WGA)-coated scintillation proximity assay (SPA) beads (0.125 mg/well) in assay buffer (HEPES 20 mM, MgCl2 10 mM, NaCl 100 mM and pH adjusted to 7.4 using KOH 5 M, GDP 10 μM FAC (final assay concentration) and saponin 90 μg/ml FAC was also added).
After 30 minutes pre-coupling on ice the bead and membrane suspension was dispensed into a white Greiner polypropylene LV384-well plate ([…]), containing 0.1 μl of the compound. […] [^35S]-GTPγS (0.5 nM final radioligand conc) made up in assay buffer was then added to agonist plates. The final assay cocktail (10.1 μl) was then centrifuged at 1000 rpm for 5 minutes then read immediately on a Viewlux reader.
All test compounds were dissolved in DMSO at a concentration of 10 mM and were prepared in 100% DMSO using a 1 in 4 dilution step to provide 11 point dose response curves. The dilutions were transferred to the assay plates ensuring that the DMSO concentration was constant across the plate for all assays.
All data was normalized to the mean of 16 high and 16 low control wells on each plate. A four parameter curve fit was then applied.
S1P1 expressing RH7777 membranes (1.5 μg/well) […] were homogenised by passing through a 23G needle. These were then adhered to WGA-coated SPA beads (0.125 mg/well) in assay buffer (HEPES 20 mM, MgCl2 10 mM, NaCl 100 mM and pH adjusted to 7.4 using KOH 5M). GDP […] FAC and saponin 90 μg/ml FAC were also added.
After 30 minutes precoupling on ice, the bead and membrane suspension was dispensed into white Greiner polypropylene LV 384-well plates (5 μl/well), containing 0.1 μl of compound. 5 μl/well [^35S]-GTPγS (0.5 nM for S1P1 or 0.3 nM for S1P3 final radioligand concentration) made in assay buffer was then added to the plates. The final assay cocktail (10.1 μl) was then sealed, spun on a centrifuge, then read immediately on a Viewlux instrument.

Row | pEC50 [3] | SMILES | effect on circulating lymphocytes [1] | bradycardia [2]
1 |  | CCCCCCCCc1ccc(CCC(N)(CO)CO)cc1 [FTY720] | reduce circulating lymphocytes in animals and man | results in bradycardia in the first 24 hours of treatment
2 | > 8.00 | CC(C)Oc1ccc(-c2nc(-c3cccc4c3CCN(CCCC(=O)O)C4)no2)cc1C#N [Example 6, 4-[5-(5-{3-cyano-4-[(1-methylethyl)oxy]phenyl}-1,2,4-oxadiazol-3-yl)-3,4-dihydro-2(1H)-isoquinolinyl]butanoic acid hydrochloride] |  | 
3 | > 7.00 | CC(C)Oc1ccc(-c2nc(-c3cccc4c3CCNC4)no2)cc1C#N [Example 3, 2-[(1-methylethyl)oxy]-5-[3-(1,2,3,4-tetrahydro-5-isoquinolinyl)-1,2,4-oxadiazol-5-yl]benzonitrile] |  | 
4 | > 7.00 | Cc1c(-c2noc(-c3ccc(OC(C)C)c(C#N)c3)n2)ccc2c1CCN(CCC(=O)O)C2 [Example 13, 3-[6-(5-{3-Cyano-4-[(1-methylethyl)oxy]phenyl}-1,2,4-oxadiazol-3-yl)-5-methyl-3,4-dihydro-2(1H)-isoquinolinyl]propanoic acid sodium salt] |  | 
5 | > 7.00 | Cc1c(-c2noc(-c3ccc(OC(C)C)c(C#N)c3)n2)ccc2c1CCNC2 [Example 11, 2-[(1-Methylethyl)oxy]-5-[3-(5-methyl-1,2,3,4-tetrahydro-6-isoquinolinyl)-1,2,4-oxadiazol-5-yl]benzonitrile trifluoroacetic acid salt] |  | 
6 | > 8.00 | CC(C)Oc1ccc(-c2nc(-c3cccc4c3CCNC4)no2)cc1C#N [Example 2, 2-[(1-methylethyl)oxy]-5-[3-(1,2,3,4-tetrahydro-5-isoquinolinyl)-1,2,4-oxadiazol-5-yl]benzonitrile hydrochloride] |  | 
7 | > 8.00 | CC(C)Oc1ccc(-c2nc(-c3cccc4c3CCN(CC(=O)O)C4)no2)cc1C#N [Example 4, [5-(5-{3-cyano-4-[(1-methylethyl)oxy]phenyl}-1,2,4-oxadiazol-3-yl)-3,4-dihydro-2(1H)-isoquinolinyl]acetic acid hydrochloride] |  | 
8 | > 7.00 | CC(C)Oc1ccc(-c2nc(-c3cccc4c3CCN(C)C4)no2)cc1C#N [Example 7, 2-[(1-methylethyl)oxy]-5-[3-(2-methyl-1,2,3,4-tetrahydro-5-isoquinolinyl)-1,2,4-oxadiazol-5-yl]benzonitrile] |  | 
9 | > 7.00 | CC(C)Oc1ccc(-c2nc(-c3cccc4c3CCN(CCC(=O)O)C4)no2)cc1C#N [Example 5, 3-[5-(5-{3-cyano-4-[(1-methylethyl)oxy]phenyl}-1,2,4-oxadiazol-3-yl)-3,4-dihydro-2(1H)-isoquinolinyl]propanoic acid hydrochloride] |  | 
10 | > 7.00 | CC(C)Oc1ccc(-c2nc(-c3cccc4c3CCNC4)no2)cc1Cl [Example 1, 5-(5-{3-chloro-4-[(1-methylethyl)oxy]phenyl}-1,2,4-oxadiazol-3-yl)-1,2,3,4-tetrahydroisoquinoline hydrochloride] |  | 
11 | > 8.00 | Cc1c(-c2noc(-c3ccc(OC(C)C)c(Cl)c3)n2)ccc2c1CCN(CCC(=O)O)C2 [Example 8, 3-[6-(5-{3-Chloro-4-[(1-methylethyl)oxy]phenyl}-1,2,4-oxadiazol-3-yl)-5-methyl-3,4-dihydro-2(1H)-isoquinolinyl]propanoic acid] |  | 
12 | > 7.00 | Cc1c(-c2noc(-c3ccc(OC(C)C)c(Cl)c3)n2)ccc2c1CCN(CC(=O)O)C2 [Example 9, [6-(5-{3-Chloro-4-[(1-methylethyl)oxy]phenyl}-1,2,4-oxadiazol-3-yl)-5-methyl-3,4-dihydro-2(1H)-isoquinolinyl]acetic acid] |  | 
13 | > 7.00 | Cc1c(-c2noc(-c3ccc(OC(C)C)c(C#N)c3)n2)ccc2c1CCN(CC(=O)O)C2 [Example 12, [6-(5-{3-Cyano-4-[(1-methylethyl)oxy]phenyl}-1,2,4-oxadiazol-3-yl)-5-methyl-3,4-dihydro-2(1H)-isoquinolinyl]acetic acid] |  | 
